The results in this text go back to patent US20130267494A1, “1,4-OXAZEPANE DERIVATIVES” (priority 2010, published 2013).

Counter-ions that a name gives are not always drawn. Like-named read-outs stand apart in the source and are kept apart here.

Holding throughout (type): cell-based
Experiment [1] has as its target T1, human serotonin transporter (Homo sapiens, UniProt P31645).
T1 construct: expressed in transfected cells
As to the kind of experiment: Inhibitory action on human serotonin transporter ([3H]-5-hydroxytryptamine uptake in CHO cells). As to conditions: compound 1 μM, relative to inhibitory activity of 10 μM Paroxetine as 100%; for inhibition at 1 µM: CHO, read-out: inhibitory rate (%). Summed up: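 CHO-K1 cells stably expressing human SERT, plated overnight, took up [3H]-5-HT (diluted to 200 nM before a 1:10 addition) for 20 min in HEPES-buffered saline with glucose and 0.5% BSA; radioactivity counted by scintillation. Compounds at 10 μM or 1 μM, activity expressed relative to 10 μM paroxetine set as 100%.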

Experiment [2] addresses T2, human dopamine transporter (Homo sapiens, UniProt Q01959).
T2 construct: expressed in transfected cells
Put plainly: Inhibitory action on human dopamine transporter ([3H]-dopamine uptake in CHO cells). The note with it: compound 1 μM, relative to inhibitory activity of 100 μM Nomifensine as 100%; for inhibition at 1 µM: CHO, read-out: inhibitory rate (%). Summed up: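 CHO-K1 cells stably expressing human dopamine transporter, exposed to compound at 10 μM or 1 μM in HEPES-buffered saline with 0.5% BSA. [3H]-dopamine uptake measured over 60 min by scintillation counting. Activity expressed relative to 100 μM nomifensine as 100%.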

For experiment [3], the target named is T3, human norepinephrine transporter (Homo sapiens, UniProt P23975).
T3 construct: expressed in transfected cells
As to the kind of experiment: Inhibitory action on human norepinephrine transporter ([3H]-norepinephrine uptake in CHO cells). The note with it: relative to inhibitory activity of 10 μM DMI as 100%; for inhibition at 1 µM: CHO. Summed up: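 Stably transfected CHO-K1 cells plated overnight, then given test compound and [3H]-norepinephrine (20 nM final, from 200 nM) in HEPES-buffered saline with 0.5% BSA for 45 min. After PBS washes, retained radioactivity counted by scintillation. Inhibition at 10 μM or 1 μM compound expressed relative to 10 μM DMI as 100%.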

The mark [4] stands for this setting: compound 1 μM, read-out: inhibitory rate (%).
Where [5] appears, read: read-out: inhibitory rate (%), compound 1 μM.

T2 sequence (Q01959 whole entry): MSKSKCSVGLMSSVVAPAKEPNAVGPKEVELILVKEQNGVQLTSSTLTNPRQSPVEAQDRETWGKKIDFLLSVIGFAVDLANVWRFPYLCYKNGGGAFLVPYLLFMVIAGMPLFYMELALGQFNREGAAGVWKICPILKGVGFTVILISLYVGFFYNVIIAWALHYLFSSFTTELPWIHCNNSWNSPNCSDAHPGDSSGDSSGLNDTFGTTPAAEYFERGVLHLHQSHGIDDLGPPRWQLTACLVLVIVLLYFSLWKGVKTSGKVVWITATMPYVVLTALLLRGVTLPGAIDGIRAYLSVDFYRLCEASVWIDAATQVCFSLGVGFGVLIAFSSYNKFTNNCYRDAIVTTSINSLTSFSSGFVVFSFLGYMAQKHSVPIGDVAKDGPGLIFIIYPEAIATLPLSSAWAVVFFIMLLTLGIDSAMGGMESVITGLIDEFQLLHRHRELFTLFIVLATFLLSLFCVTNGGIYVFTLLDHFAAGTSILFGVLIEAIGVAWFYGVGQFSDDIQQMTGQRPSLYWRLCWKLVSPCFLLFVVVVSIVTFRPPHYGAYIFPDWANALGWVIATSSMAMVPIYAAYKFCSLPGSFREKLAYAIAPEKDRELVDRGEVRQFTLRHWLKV
T3 sequence (P23975 whole entry): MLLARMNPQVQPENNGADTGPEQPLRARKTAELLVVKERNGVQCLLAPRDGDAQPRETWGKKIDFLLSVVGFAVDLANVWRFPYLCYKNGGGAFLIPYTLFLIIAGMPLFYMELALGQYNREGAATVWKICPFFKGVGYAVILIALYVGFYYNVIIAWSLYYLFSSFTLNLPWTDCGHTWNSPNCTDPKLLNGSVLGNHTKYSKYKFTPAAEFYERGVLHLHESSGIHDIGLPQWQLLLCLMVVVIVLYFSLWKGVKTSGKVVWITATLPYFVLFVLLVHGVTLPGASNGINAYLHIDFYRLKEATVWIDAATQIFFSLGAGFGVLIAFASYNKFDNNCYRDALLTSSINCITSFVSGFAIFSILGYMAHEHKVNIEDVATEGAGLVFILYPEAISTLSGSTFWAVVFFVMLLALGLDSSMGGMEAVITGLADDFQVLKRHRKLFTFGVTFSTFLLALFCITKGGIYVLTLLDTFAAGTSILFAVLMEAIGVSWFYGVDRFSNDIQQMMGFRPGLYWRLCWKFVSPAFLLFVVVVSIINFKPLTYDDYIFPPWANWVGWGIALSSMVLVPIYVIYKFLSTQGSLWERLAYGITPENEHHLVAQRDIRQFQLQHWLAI
T1 sequence (P31645 whole entry): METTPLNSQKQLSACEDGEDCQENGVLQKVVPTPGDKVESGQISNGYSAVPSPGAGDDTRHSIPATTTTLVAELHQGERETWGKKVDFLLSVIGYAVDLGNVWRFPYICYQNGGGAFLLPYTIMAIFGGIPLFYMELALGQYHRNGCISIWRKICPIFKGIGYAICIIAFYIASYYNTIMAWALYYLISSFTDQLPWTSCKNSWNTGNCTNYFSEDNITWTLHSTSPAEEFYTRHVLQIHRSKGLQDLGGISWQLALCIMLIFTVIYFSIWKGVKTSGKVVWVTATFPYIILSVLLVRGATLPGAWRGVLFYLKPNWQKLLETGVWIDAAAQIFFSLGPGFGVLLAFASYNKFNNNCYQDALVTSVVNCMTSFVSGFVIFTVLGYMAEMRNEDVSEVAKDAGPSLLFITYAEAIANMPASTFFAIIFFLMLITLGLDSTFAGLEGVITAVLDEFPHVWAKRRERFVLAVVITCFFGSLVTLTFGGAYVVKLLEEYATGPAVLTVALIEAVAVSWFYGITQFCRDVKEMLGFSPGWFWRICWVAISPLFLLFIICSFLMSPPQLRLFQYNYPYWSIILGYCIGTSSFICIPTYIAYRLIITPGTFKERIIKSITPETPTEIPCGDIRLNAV

In the case of `O=c1ccccn1C[C@@H]1CNCCO[C@H]1c1ccc(Cl)c(F)c1` [Example 42, 1-{[(6S,7R)-7-(4-chloro-3-fluorophenyl)-1,4-oxazepan-6-yl]methyl}pyridin-2(1H)-one monohydrochloride], the inhibition at 1 µM stood at 87% in experiment [1], 47% in experiment [2] and 102% in experiment [3] (setting [4]).
For the molecule `OC[C@@H](O)[C@@H]1OCCNC[C@H]1c1ccc(Cl)c(Cl)c1` [Example 46, (1R)-1-[(6R,7R)-6-(3,4-dichlorophenyl)-1,4-oxazepan-7-yl]ethane-1,2-diol monohydrochloride], the inhibition at 1 µM in experiment [1] stood at 70%; in experiment [2], 27%; in experiment [3] (setting [4]), 104%.
`OC[C@@]1(c2ccc(Cl)c(Cl)c2)CCNCCO1` [Example 47, [(7S)-7-(3,4-dichlorophenyl)-1,4-oxazepan-7-yl]methanol monohydrochloride]: the values for the inhibition at 1 µM in experiment [1], in experiment [2] and in experiment [3] (setting [5]) were 82%, 9% and 99%, respectively.
Take `OCC1CNCCOC1c1ccc(Cl)c(Cl)c1` (stereo not drawn) [Example 48, [(6R*,7R*)-7-(3,4-dichlorophenyl)-1,4-oxazepan-6-yl]methanol monohydrochloride (retention time short)]: the values for the inhibition at 1 µM in experiment [1], in experiment [2] and in experiment [3] (setting [5]) were 98%, 22% and 99%, respectively.
As for `OCC1CNCCOC1c1ccc(Cl)c(Cl)c1` (stereo not drawn) [Example 49, [(6R*,7R*)-7-(3,4-dichlorophenyl)-1,4-oxazepan-6-yl]methanol monohydrochloride (retention time long)], the “inhibitory rate (%)” value in experiment [1] was 87%; in experiment [2] it was 41%; in experiment [3] (compound 1 μM) it was 98%.
Consider `OC[C@@H]1CNCCO[C@H]1c1ccc(Cl)c(Cl)c1` [Example 72, [(6S,7R)-7-(3,4-dichlorophenyl)-1,4-oxazepan-6-yl]methanol monohydrochloride], for which the inhibition at 1 µM was 90% in experiment [1], 41% in experiment [2] and 95% in experiment [3] (setting [5]).
For `OC[C@H]1CNCCO[C@@H]1c1ccc(Cl)c(Cl)c1` [Example 73, [(6R,7S)-7-(3,4-dichlorophenyl)-1,4-oxazepan-6-yl]methanol monohydrochloride], in that order: 97%, 64% and 98%.
Consider `O=c1[nH]c(-c2ccc(OC[C@@H]3CNCCO[C@H]3c3ccc(Cl)c(Cl)c3)nc2)no1` [Example 87, 3-(6-{[(6S,7R)-7-(3,4-dichlorophenyl)-1,4-oxazepan-6-yl]methoxy}pyridin-3-yl)-1,2,4-oxadiazol-5(4H)-one monohydrochloride], for which the inhibition at 1 µM came to 96% in experiment [1], 20% in experiment [2] and 108% in experiment [3] (setting [4]).
For `CS(=O)(=O)C[C@@H]1CNCCO[C@H]1c1ccc(Cl)c(Cl)c1` [Example 92, (6R,7R)-7-(3,4-dichlorophenyl)-6-[(methylsulfonyl)methyl]-1,4-oxazepane monohydrochloride], in that order: 97%, 86% and 96%.
Take `CS(=O)(=O)C[C@H]1CNCCO[C@@H]1c1ccc(Cl)c(Cl)c1` [Example 93, (6S,7S)-7-(3,4-dichlorophenyl)-6-[(methylsulfonyl)methyl]-1,4-oxazepane monohydrochloride]: the inhibition at 1 µM in experiment [1] is 97%; in experiment [2], 96%; in experiment [3] (setting [4]), 96%.
In the case of `CC(=O)N(C)C[C@@H]1CNCCO[C@H]1c1ccc(Cl)c(Cl)c1` [Example 99, N-{[(6S,7R)-7-(3,4-dichlorophenyl)-1,4-oxazepan-6-yl]methyl}-N-methylacetamide monohydrochloride], the values for the inhibition at 1 µM in experiment [1], in experiment [2] and in experiment [3] (setting [4]) were 99%, 94% and 98%, respectively.
For `CS(=O)(=O)CC(=O)NC[C@@H]1CNCCO[C@H]1c1ccc(Cl)c(Cl)c1` [Example 114, N-{[(6S,7R)-7-(3,4-dichlorophenyl)-1,4-oxazepan-6-yl]methyl}-2-(methylsulfonyl)acetamide monohydrochloride], in that order: 94%, 59% and 99%.
For `CS(=O)(=O)CC(=O)NC[C@H]1CNCCO[C@@H]1c1ccc(Cl)c(Cl)c1` [Example 115, N-{[(6R,7S)-7-(3,4-dichlorophenyl)-1,4-oxazepan-6-yl]methyl}-2-(methylsulfonyl)acetamide monohydrochloride] the same measures were 99%, 66% and 98%.
For `O=C(NC[C@@H]1CNCCO[C@H]1c1ccc(Cl)c(Cl)c1)c1ccccc1` [Example 126, N-{[(6S,7R)-7-(3,4-dichlorophenyl)-1,4-oxazepan-6-yl]methyl}benzamide monohydrochloride] the same measures were 97%, 27% and 103%.
As for `O=C(NC[C@@H]1CNCCO[C@H]1c1ccc(Cl)c(Cl)c1)c1cccc(-c2noc(=O)[nH]2)c1` [Example 142, N-{[(6S,7R)-7-(3,4-dichlorophenyl)-1,4-oxazepan-6-yl]methyl}-3-(5-oxo-4,5-dihydro-1,2,4-oxadiazol-3-yl)benzamide monohydrochloride], the inhibition at 1 µM amounted to 95% in experiment [1], 4% in experiment [2] and 100% in experiment [3] (setting [4]).
For `O=C(NC[C@@H]1CNCCO[C@H]1c1ccc(Cl)c(Cl)c1)c1cc(-c2noc(=O)[nH]2)ccn1` [Example 146, N-{[(6S,7R)-7-(3,4-dichlorophenyl)-1,4-oxazepan-6-yl]methyl}-4-(5-oxo-4,5-dihydro-1,2,4-oxadiazol-3-yl)pyridine-2-carboxamide monohydrochloride], in that order: 100%, 47% and 101%.
For the molecule `NC(=O)NC[C@@H]1CNCCO[C@H]1c1ccc(Cl)c(Cl)c1` [Example 152, 1-{[(6S,7R)-7-(3,4-dichlorophenyl)-1,4-oxazepan-6-yl]methyl}urea monofumarate], the results for the inhibition at 1 µM in experiment [1], in experiment [2] and in experiment [3] (setting [5]) were 89%, 59% and 95%, respectively.
For `NC(=O)NC[C@H]1CNCCO[C@@H]1c1ccc(Cl)c(Cl)c1` [Example 153, 1-{[(6R,7S)-7-(3,4-dichlorophenyl)-1,4-oxazepan-6-yl]methyl}urea monofumarate], in that order: 93%, 49% and 95%.
Regarding `CNC(=O)N(CCO)C[C@@H]1CNCCO[C@H]1c1ccc(Cl)c(Cl)c1` [Example 160, 1-{[(6S,7R)-7-(3,4-dichlorophenyl)-1,4-oxazepan-6-yl]methyl}-1-(2-hydroxyethyl)-3-methylurea monohydrochloride], the inhibition at 1 µM in experiment [1] turned out to be 99%; in experiment [2] it was 99%; in experiment [3] (setting [4]) it was 101%.
